Source: ChEMBL document CHEMBL5257143, “Discovery of First-in-Class Small Molecule Inhibitors of Lymphocyte Activation Gene 3 (LAG-3)” (ACS Med Chem Lett, 2023)

Legend:
[1] = Inhibition of LAG-3/FGL1 (unknown origin) interaction incubated for 2 hrs by TR-FRET assay; parameters: species or system Homo sapiens
[2] = Inhibition of LAG-3-MHCII (unknown origin) interaction incubated for 2 hrs by TR-FRET assay; parameters: species or system Homo sapiens
[3] = Inhibition of LAG-3/FGL1 (unknown origin) interaction by ELISA analysis; parameters: species or system Homo sapiens
[4] = species on record: Homo sapiens; experiment: Inhibition of LAG-3-MHCII (unknown origin) interaction at 10 to 30 uM incubated for 2 hrs by TR-FRET assay relative to control; details: dose 10-30 µM
[5] = (§1) Inhibition of LAG-3-MHCII interaction in human Jurkat T cells expressing human LAG-3/luciferase reporter co-cultured with MHCII antigen presenting cells assessed as increase in luminescence by Bio-Glo reagent based assay; type: cell-based
[6] = system: Jurkat T; experiment: as §1; type: cell-based

## Cc1cc(C(=O)COc2ccc(N3CCCC3=O)cc2)c(C)n1C1CC1
[1]
  IC50: 20.4 µM
[2]
  IC50: 17.2 µM

## Cc1ccc(-n2c(C)cc(C(=O)COc3ccc(NC(=O)c4ccc(C(C)(C)C)cc4)cc3)c2C)cc1
[1]
  IC50: 18.2 µM
[2]
  IC50: 19.3 µM

## CC(=O)Nc1ccc(OCC(=O)c2cc(C)n(-c3ccc(Cl)c(Cl)c3)c2C)cc1
[1]
  IC50: 10.3 µM
[2]
  IC50: 11.2 µM

## CC(=O)Nc1ccc(OCC(=O)c2cc(C)n(-c3ccccc3F)c2C)cc1
[1]
  IC50: 29.4 µM
[2]
  IC50: 21.3 µM

## Cc1cc(C(=O)COc2ccc(C(N)=O)cc2)c(C)n1C
[1]
  IC50: > 50 µM
[2]
  IC50: > 50 µM

## Cc1cc(C(=O)COc2ccc(NC(=O)c3ccccc3)cc2)c(C)n1Cc1ccco1
[1]
  IC50: 9.94 µM
[2]
  IC50: 9.38 µM

## Cc1cc(C(=O)COc2ccccc2C(=O)Nc2ccccc2)c(C)[nH]1
[1]
  IC50: > 50 µM
[2]
  IC50: > 50 µM

## CC(=O)Nc1ccc(OCC(=O)c2cc(C)n(Cc3ccccc3)c2C)cc1
[1]
  IC50: 20.4 µM
[2]
  IC50: 18.3 µM

## CC(=O)Nc1ccc(OCC(=O)c2cc(C)n(CCc3ccccc3)c2C)cc1
[1]
  IC50: 28.5 µM
[2]
  IC50: 23.4 µM

## CC(=O)Nc1cccc(OCC(=O)c2cc(C)n(-c3ccc(C)c(C)c3)c2C)c1
[1]
  IC50: 25.5 µM
[2]
  IC50: 31.4 µM

## Cc1ccc(-n2c(C)cc(C(=O)COc3ccc(C(N)=O)cc3)c2C)cc1
[1]
  IC50: 29.4 µM
[2]
  IC50: 26.9 µM

## Cc1cc(C(=O)COc2ccc(NC(=O)c3ccco3)cc2)c(C)n1-c1ccccc1
[1]
  IC50: 13.7 µM
[2]
  IC50: 8.36 µM

## COCCCn1c(C)cc(C(=O)COc2ccc(NC(C)=O)cc2)c1C
[1]
  IC50: > 50 µM
[2]
  IC50: > 50 µM

## CC(=O)Nc1ccc(OCC(=O)c2cc(C)n(CCc3ccc(F)cc3)c2C)cc1
[1]
  IC50: 21.4 µM
[2]
  IC50: 28.4 µM

## CC(=O)Nc1ccc(OCC(=O)c2cc(C)n(-c3ccc(OC(F)F)cc3)c2C)cc1
[1]
  IC50: 16.5 µM
[2]
  IC50: 12.4 µM

## C=CCn1c(C)cc(C(=O)COc2ccc(NC(=O)c3cccc([N+](=O)[O-])c3)cc2)c1C
[1]
  IC50: > 50 µM
[2]
  IC50: > 50 µM

## CC(=O)Nc1ccc(OCC(=O)c2cc(C)n(C(C)C)c2C)cc1
[1]
  IC50: > 50 µM
[2]
  IC50: > 50 µM

## CCCn1c(C)cc(C(=O)COc2ccccc2NC(C)=O)c1C
[1]
  IC50: > 50 µM
[2]
  IC50: > 50 µM

## CCCn1c(C)cc(C(=O)COc2ccc(NC(C)=O)cc2)c1C
[1]
  IC50: > 50 µM
[2]
  IC50: > 50 µM

## C=CCn1c(C)cc(C(=O)COc2ccccc2C(=O)Nc2ccccc2)c1C
[1]
  IC50: > 50 µM
[2]
  IC50: > 50 µM

## Cc1cc(C(=O)COc2ccc(NC(=O)c3ccco3)cc2)c(C)n1C
[1]
  IC50: 16.7 µM
[3]
  IC50: 18.5 µM
[4]
  inhibition: > 90%
[2]
  IC50: 14.8 µM

## COc1ccccc1C(=O)Nc1ccc(OCC(=O)c2cc(C)n(C)c2C)cc1
[1]
  IC50: 35.4 µM
[2]
  IC50: 25.7 µM

## Cc1cc(C(=O)COc2ccccc2C(=O)Nc2ccccc2)c(C)n1CC1CCCO1 (stereo not drawn)
[1]
  IC50: 14.2 µM
[2]
  IC50: 18.4 µM

## Cc1cc(C(=O)COc2ccc(NC(=O)c3ccco3)cc2)c(C)n1Cc1ccccc1
[1]
  IC50: 6.52 µM
[5]
  IC50: 6.95 µM
[6]
  inhibition: Dose-Dependent Effect
[2]
  IC50: 4.21 µM

## CC(=O)Nc1ccccc1OCC(=O)c1cc(C)n(CCc2ccc(F)cc2)c1C
[1]
  IC50: 32.7 µM
[2]
  IC50: 28.4 µM

## Cc1cc(C(=O)COc2ccc(C(N)=O)cc2)c(C)n1CCc1ccc(F)cc1
[1]
  IC50: 22.4 µM
[2]
  IC50: 18.3 µM

## CCC(=O)c1ccc(OCC(=O)c2cc(C)n(Cc3ccco3)c2C)cc1
[1]
  IC50: 28.7 µM
[2]
  IC50: 20.4 µM
